The test system of the experiment is P388 leukemia ip, CD2F1 mice, survival T/C. As to the kind of experiment: NCI In Vivo Anticancer Drug Screen. Data for tumor model P388 Leukemia (intraperitoneal) in CD2F1 (CDF1) mice. To be noted: endpoint: median survival time, higher = longer survival. The method, boiled down:
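Mice carrying the transplanted tumor received test compound or vehicle. Survival was recorded in each group, and the value is the treated-group measurement divided by that of the vehicle-treated control group.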

[1] abbreviates: dose: 60.0 mg/kg/injection, schedule: Q01DX005 (ip), vehicle: saline with Tween-80.
Where [2] appears, read: dose: 120.0 mg/kg/injection, schedule: Q01DX005 (ip), vehicle: saline with Tween-80.
The mark [3] stands for this setting: dose: 50.0 mg/kg/injection, schedule: Q01DX009 (ip), vehicle: saline.
Where [4] appears, read: dose: 100.0 mg/kg/injection, schedule: Q01DX009 (ip), vehicle: saline.
The mark [5] stands for this setting: dose: 200.0 mg/kg/injection, schedule: Q01DX009 (ip), vehicle: saline.
The mark [6] stands for this setting: dose: 50.0 mg/kg/injection, schedule: Q01DX009 (ip), vehicle: Klucel (hydroxypropylcellulose) (HPC).
Where [7] appears, read: dose: 100.0 mg/kg/injection, schedule: Q01DX009 (ip), vehicle: Klucel (hydroxypropylcellulose) (HPC).
[8] abbreviates: dose: 200.0 mg/kg/injection, schedule: Q01DX009 (ip), vehicle: Klucel (hydroxypropylcellulose) (HPC).
Where [9] appears, read: dose: 50.0 mg/kg/injection, schedule: Q01DX005 (ip), vehicle: saline with Tween-80.
[10] abbreviates: dose: 100.0 mg/kg/injection, schedule: Q01DX005 (ip), vehicle: saline with Tween-80.
Where [11] appears, read: dose: 200.0 mg/kg/injection, schedule: Q01DX005 (ip), vehicle: saline with Tween-80.
Setting [12] is: dose: 25.0 mg/kg/injection, schedule: Q01DX009 (ip), vehicle: saline with Tween-80.
Setting [13] is: dose: 50.0 mg/kg/injection, schedule: Q01DX009 (ip), vehicle: saline with Tween-80.
[14] abbreviates: dose: 100.0 mg/kg/injection, schedule: Q01DX009 (ip), vehicle: saline with Tween-80.
Setting [15] is: dose: 60.0 mg/kg/injection, schedule: Q01DX005 (ip), vehicle: saline.

Where “and” joins values, the source holds several entries; their conditions need not be identical. Equal entries are not always repeated. Toxic doses and inconclusive results are not listed.

Regarding `C=C1C(=O)OC2CC(C)C3C=CC(=O)C3CC12` (stereo not given), the T/C runs as follows: (dose: 0.15 mg/kg/injection, schedule: Q01DX009 (ip), vehicle: Klucel (hydroxypropylcellulose) (HPC)) 98 % of control; (dose: 0.3 mg/kg/injection, schedule: Q01DX009 (ip), vehicle: Klucel (hydroxypropylcellulose) (HPC)) 100 % of control; (dose: 0.6 mg/kg/injection, schedule: Q01DX009 (ip), vehicle: Klucel (hydroxypropylcellulose) (HPC)) 99 % of control and 103 % of control; (dose: 2.34 mg/kg/injection, schedule: Q01DX009 (ip), vehicle: Klucel (hydroxypropylcellulose) (HPC)) 102 % of control; (dose: 2.4 mg/kg/injection, schedule: Q01DX009 (ip), vehicle: Klucel (hydroxypropylcellulose) (HPC)) 104 % of control.

As for `NC1(C(=O)O)CCCC1.O.[Cl][Au]`, under setting [1], the T/C is 110 % of control.

Take `[Br][Sn]([Br])([CH2][Sn]([Br])([c]1ccccc1)[c]1ccccc1)[c]1ccccc1`: the T/C (dose: 12.5 mg/kg/injection, schedule: Q01DX005 (ip), vehicle: Klucel (hydroxypropylcellulose) (HPC)) was 124 % of control.

`COC(=O)c1cccc2cccc(C(=O)N(C)CCN(C)C)c12`: the T/C was 97 % of control under setting [1] and 95 % of control under setting [2].

In the case of `O=C(O)CN(CC(=O)O)Cc1cc(=O)[nH]c(=O)[nH]1`, the T/C is 91 % of control under setting [3], 95 % of control under setting [4] and 97 % of control under setting [5].

For `CCOCCOCCOC(C)Oc1ccc(Cl)cc1C` (stereo not given), the T/C under setting [1] is 90 % of control; the T/C under setting [2] was 92 % of control; the T/C (dose: 240.0 mg/kg/injection, schedule: Q01DX005 (ip), vehicle: saline with Tween-80) was 98 % of control.

As to `CCC(C(=O)O)C(=O)O.[NH2-].[NH2-].[Pt+2]`, the T/C is, setting by setting: (dose: 50.0 mg/kg/injection, schedule: Q01DX001 (ip), vehicle: saline) 152 % of control; (dose: 100.0 mg/kg/injection, schedule: Q01DX001 (ip), vehicle: saline) 175 % of control; (dose: 200.0 mg/kg/injection, schedule: Q01DX001 (ip), vehicle: saline) 189 % of control and 205 % of control.

Take `C=C1C(O)C2(O)OCC34C(CC5C(C)=CC(=O)C(O)C5(C)C23)OC(=O)C(OC(=O)C(C)(O)CC)C14` (stereo not given): the T/C is, setting by setting: (dose: 0.25 mg/kg/injection, schedule: Q01DX009 (ip), vehicle: saline + alcohol) 106 % of control and 112 % of control; (dose: 0.5 mg/kg/injection, schedule: Q01DX009 (ip), vehicle: saline + alcohol) 118 % of control.

For the molecule `Cc1ccc2nc(-c3cccc(Cl)c3)oc(=O)c2c1`, the T/C reads like this: under setting [6], 110 % of control; under setting [7], 102 % of control; under setting [8], 92 % of control.

With `COc1ccc(-n2nnnc2N(C)c2ccccc2)cc1`, the T/C runs as follows: (dose: 50.0 mg/kg/injection, schedule: Q04DX003 (ip), vehicle: saline with Tween-80) 100 % of control; (dose: 100.0 mg/kg/injection, schedule: Q04DX003 (ip), vehicle: saline with Tween-80) 94 % of control; (dose: 200.0 mg/kg/injection, schedule: Q04DX003 (ip), vehicle: saline with Tween-80) 96 % of control.

As for `Cc1ccc(S(=O)(=O)CC(=O)c2ccccc2)cc1`, the T/C was 108 % of control under setting [7]; 108 % of control under setting [8]; 104 % of control (dose: 400.0 mg/kg/injection, schedule: Q01DX009 (ip), vehicle: Klucel (hydroxypropylcellulose) (HPC)).

Turning to `CCOC(=O)c1ccc(NC(=O)Nc2cc(Cl)ncn2)cc1`, the T/C is 100 % of control under setting [6], 99 % of control under setting [7] and 91 % of control under setting [8].

Consider `CC(=O)NO`, for which the T/C is, setting by setting: under setting [3], 104 % of control; under setting [4], 96 % of control; under setting [5], 103 % of control.

On to `Cc1cc(Cl)c2ccc(Cl)c(C)c2n1`, for which the T/C was 102 % of control under setting [9], 104 % of control under setting [10] and 100 % of control under setting [11].

On to `CCCCc1nc2cc(CN3CCN(C(c4ccccc4)c4ccccc4)CC3)ccc2n1CC`, for which the T/C is 95 % of control (dose: 6.25 mg/kg/injection, schedule: Q01DX009 (ip), vehicle: saline with Tween-80); 101 % of control (dose: 12.5 mg/kg/injection, schedule: Q01DX009 (ip), vehicle: saline with Tween-80); 100 % of control under setting [12].

Regarding `CS(=O)CSCC(N)C(=O)O` (stereo not given), the T/C runs as follows: (dose: 25.0 mg/kg/injection, schedule: Q01DX009 (ip), vehicle: water) 91 % of control; (dose: 50.0 mg/kg/injection, schedule: Q01DX009 (ip), vehicle: water) 100 % of control; (dose: 100.0 mg/kg/injection, schedule: Q01DX009 (ip), vehicle: water) 93 % of control; (dose: 200.0 mg/kg/injection, schedule: Q01DX009 (ip), vehicle: water) 99 % of control; (dose: 400.0 mg/kg/injection, schedule: Q01DX009 (ip), vehicle: water) 96 % of control.

For the molecule `C[N+](C)(C)CCCCC[N+](C)(C)C`, the T/C runs as follows: (dose: 6.25 mg/kg/injection, schedule: Q01DX009 (ip), vehicle: saline) 110 % of control; (dose: 12.5 mg/kg/injection, schedule: Q01DX009 (ip), vehicle: saline) 110 % of control; under setting [12], 100 % of control; (dose: 25.0 mg/kg/injection, schedule: Q01DX009 (ip), vehicle: saline) 110 % of control; under setting [13], 104 % of control; under setting [14], 100 % of control.

Take `COc1ccc(/C=N/N2CN(C(C)C(=O)O)B(NCCC(C)C)N=C2N)cc1OC` (stereo not given): the T/C under setting [15] is 104 % of control and the T/C (dose: 120.0 mg/kg/injection, schedule: Q01DX005 (ip), vehicle: saline) was 105 % of control.

With `O=C(/C=C/c1ccc(Cl)cc1)c1ccccc1`, the T/C is, setting by setting: under setting [13], 105 % of control; under setting [14], 103 % of control; (dose: 200.0 mg/kg/injection, schedule: Q01DX009 (ip), vehicle: saline with Tween-80) 92 % of control.

Consider `Fc1ccc(C2SCCCS2)cc1`, for which the T/C by setting is: under setting [3], 92 % of control; under setting [4], 92 % of control; under setting [5], 101 % of control.

As for `CC(=O)CC1C=CCC(CC(O)c2ccccc2)N1C` (stereo not given), the T/C runs as follows: (dose: 12.5 mg/kg/injection, schedule: Q01DX005 (ip), vehicle: saline) 100 % of control; (dose: 25.0 mg/kg/injection, schedule: Q01DX005 (ip), vehicle: saline) 105 % of control; (dose: 50.0 mg/kg/injection, schedule: Q01DX005 (ip), vehicle: saline) 105 % of control.

Take `COC1=CC2C3C(=O)NC(=O)C3C1C1CC(C#N)C21OC` (stereo not given): the T/C is, setting by setting: (dose: 100.0 mg/kg/injection, schedule: Q01DX001 (ip), vehicle: saline with Tween-80) 104 % of control; (dose: 200.0 mg/kg/injection, schedule: Q01DX001 (ip), vehicle: saline with Tween-80) 114 % of control; (dose: 400.0 mg/kg/injection, schedule: Q01DX001 (ip), vehicle: saline with Tween-80) 107 % of control.

As for `O=C(O)C(=O)O.O=C([O-])C(=O)O.O=C([O-])C(=O)O.[Fe+3].[K+]`, the T/C (dose: 30.0 mg/kg/injection, schedule: Q01DX005 (ip), vehicle: saline) was 100 % of control and the T/C under setting [15] is 99 % of control.

With `CSC(SC)(SC)c1cc(-c2c(Cl)cccc2Cl)no1`, the T/C was 93 % of control under setting [9], 102 % of control under setting [10] and 93 % of control under setting [11].

For `CN(C=O)CCN(C)C=O`, the T/C (dose: 100.0 mg/kg/injection, schedule: Q04DX002 (ip), vehicle: saline) is 96 % of control; the T/C (dose: 200.0 mg/kg/injection, schedule: Q04DX002 (ip), vehicle: saline) was 99 % of control; the T/C (dose: 400.0 mg/kg/injection, schedule: Q04DX002 (ip), vehicle: saline) was 104 % of control.

Turning to `CC1C2c3ccccc3C(c3ccccc32)C1C(=O)O` (stereo not given), the T/C was 98 % of control under setting [9], 100 % of control under setting [10] and 107 % of control under setting [11].

For the molecule `COC(=O)C1=C(C(=O)OC)C2(c3ccccc3-c3ccccc32)C2C=CC=CN12` (stereo not given), the T/C (dose: 50.0 mg/kg/injection, schedule: Q01DX005 (ip), vehicle: Klucel (hydroxypropylcellulose) (HPC)) is 100 % of control; the T/C (dose: 100.0 mg/kg/injection, schedule: Q01DX005 (ip), vehicle: Klucel (hydroxypropylcellulose) (HPC)) is 101 % of control; the T/C (dose: 200.0 mg/kg/injection, schedule: Q01DX005 (ip), vehicle: Klucel (hydroxypropylcellulose) (HPC)) is 100 % of control.
